This passage reports IC50 results from patent US20250263424A1, “KRAS INHIBITORS” (Bristol-Myers Squibb Company, priority 2022, published 2025).

Molecules are shown by their SMILES.

Broadly, the IC50 is the concentration at which inhibition is half-maximal.

Chain of Recombinant GMPPNP-loaded KRAS G12C (KRAS-G12C(ON), active form) (P01116 1-188 isoform P01116-2 G12C): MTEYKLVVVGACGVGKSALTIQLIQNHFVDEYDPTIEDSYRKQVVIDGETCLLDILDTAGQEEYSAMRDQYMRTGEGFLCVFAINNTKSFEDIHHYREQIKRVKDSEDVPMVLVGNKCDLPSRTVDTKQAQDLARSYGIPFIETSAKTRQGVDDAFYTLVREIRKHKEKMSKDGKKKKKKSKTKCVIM

This assay concerns the target Recombinant GMPPNP-loaded KRAS G12C (KRAS-G12C(ON), active form) (Homo sapiens, UniProt P01116, G12C). Nature of the assay: KRAS G12C RAF Disruption Assay (HTRF). The format is biochemical. Conditions: GMPPNP-loaded KRAS G12C 5 nM, GST-RAF1 RBD 9 nM, values in nM, read-out: KRASG12C RAF Disruption Assay (IC50). Summed up: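 GMPPNP-loaded KRAS G12C (5 nM) preincubated with compound 20 min at room temperature in Tris pH 7.5 buffer with MgCl2, DTT and BSA. GST-RAF1 RBD (9 nM) then added for 20 min, and SA-Tb (0.25 nM) for 3 h. HTRF 520/495 ratio read; IC50 taken from the dose-response curve.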
In the case of `COc1ccc(Cl)cc1-c1ccc2c(N3CCN(C(=O)/C(F)=C/c4ccccn4)[C@@H](CC#N)C3)nc(OC[C@@H]3CCCN3C)nc2c1F` [Example 61, 2-((S)-4-(7-(5-chloro-2-methoxyphenyl)-8-fluoro-2-(((S)-1-methylpyrrolidin-2-yl)methoxy)quinazolin-4-yl)-1-((Z)-2-fluoro-3-(pyridin-2-yl)acryloyl)piperazin-2-yl)acetonitrile], the IC50 was determined as 2800 nM. As for `COc1ccc(Cl)cc1-c1ccc2c(N3CCN(C(=O)/C(F)=C/c4nccs4)[C@@H](CC#N)C3)nc(OC[C@@H]3CCCN3C)nc2c1F` [Example 62, 2-((S)-4-(7-(5-chloro-2-methoxyphenyl)-8-fluoro-2-(((S)-1-methylpyrrolidin-2-yl)methoxy)quinazolin-4-yl)-1-((Z)-2-fluoro-3-(thiazol-2-yl)acryloyl)piperazin-2-yl)acetonitrile], the IC50 was 3100 nM. For `COc1ccc(Cl)cc1-c1ccc2c(N3CCN(C(=O)/C(F)=C/c4ncccn4)[C@@H](CC#N)C3)nc(OC[C@@H]3CCCN3C)nc2c1F` [Example 63, 2-((S)-4-(7-(5-chloro-2-methoxyphenyl)-8-fluoro-2-(((S)-1-methylpyrrolidin-2-yl)methoxy)quinazolin-4-yl)-1-((Z)-2-fluoro-3-(pyrimidin-2-yl)acryloyl)piperazin-2-yl)acetonitrile] the value was 9800 nM. For the compound `COc1ccc(Cl)cc1-c1ccc2c(N3CCN(C(=O)/C(F)=C/c4cnccn4)[C@@H](CC#N)C3)nc(OC[C@@H]3CCCN3C)nc2c1F` [Example 64], the IC50 amounted to 61000 nM. The figure for `CN1CCC[C@H]1COc1nc(N2CCN(C(=O)/C(F)=C/c3ccccn3)[C@@H](CC#N)C2)c2ccc(-c3cc(Cl)ccc3OC(F)(F)F)c(F)c2n1` [Example 65, 2-((S)-4-(7-(5-chloro-2-(trifluoromethoxy)phenyl)-8-fluoro-2-(((S)-1-methylpyrrolidin-2-yl)methoxy)quinazolin-4-yl)-1-((Z)-2-fluoro-3-(pyridin-2-yl)acryloyl)piperazin-2-yl)acetonitrile] is 2100 nM. `CN1CCC[C@H]1COc1nc(N2CCN(C(=O)/C(F)=C/c3nccs3)[C@@H](CC#N)C2)c2ccc(-c3cc(Cl)ccc3OC(F)(F)F)c(F)c2n1` [Example 66, 2-((S)-4-(7-(5-chloro-2-(trifluoromethoxy)phenyl)-8-fluoro-2-(((S)-1-methylpyrrolidin-2-yl)methoxy)quinazolin-4-yl)-1-((Z)-2-fluoro-3-(thiazol-2-yl)acryloyl)piperazin-2-yl)acetonitrile]: the IC50 stood at 3200 nM. With `CN1CCC[C@H]1COc1nc(N2CCN(C(=O)/C(F)=C/c3ncccn3)[C@@H](CC#N)C2)c2ccc(-c3cc(Cl)ccc3OC(F)(F)F)c(F)c2n1` [Example 67, 2-((S)-4-(7-(5-chloro-2-(trifluoromethoxy)phenyl)-8-fluoro-2-(((S)-1-methylpyrrolidin-2-yl)methoxy)quinazolin-4-yl)-1-((Z)-2-fluoro-3-(pyrimidin-2-yl)acryloyl)piperazin-2-yl)acetonitrile], the IC50 was determined as 4700 nM. For `CN1CCC[C@H]1COc1nc(N2CCN(C(=O)/C(F)=C/c3cnccn3)[C@@H](CC#N)C2)c2ccc(-c3cc(Cl)ccc3OC(F)(F)F)c(F)c2n1` [Example 68, 2-((S)-4-(7-(5-chloro-2-(trifluoromethoxy)phenyl)-8-fluoro-2-(((S)-1-methylpyrrolidin-2-yl)methoxy)quinazolin-4-yl)-1-((Z)-2-fluoro-3-(pyrazin-2-yl)acryloyl)piperazin-2-yl)acetonitrile] the value was 20400 nM. The figure for `Cc1cc(N)nc(-c2c(Cl)cc3c(N4CC[C@@H]5CC[C@H](C4)N5C(=O)/C(F)=C/c4nccs4)nc(OC[C@]45CCC[C@H]4N(C)CCC5)nc3c2F)c1C(F)(F)F` [Example 70, (Z)-1-((1R,6S)-3-(7-(6-amino-4-methyl-3-(trifluoromethyl)pyridin-2-yl)-6-chloro-8-fluoro-2-(((4aS,7aR)-1-methyloctahydro-4aH-cyclopenta[b]pyridin-4a-yl)methoxy)quinazolin-4-yl)-3,9-diazabicyclo[4.2.1]nonan-9-yl)-2-fluoro-3-(thiazol-2-yl)prop-2-en-1-one] is 7900 nM. Turning to `Cc1cc(N)nc(-c2c(Cl)cc3c(N4CC[C@@H]5CC[C@H](C4)N5C(=O)/C(F)=C/c4nccs4)nc(OC[C@@]45CCCN4C[C@H](F)C5)nc3c2F)c1C(F)(F)F` [Example 71, (Z)-1-((1R,6S)-3-(7-(6-amino-4-methyl-3-(trifluoromethyl)pyridin-2-yl)-6-chloro-8-fluoro-2-(((2R,7aS)-2-fluorotetrahydro-1H-pyrrolizin-7a(5H)-yl)methoxy)quinazolin-4-yl)-3,9-diazabicyclo[4.2.1]nonan-9-yl)-2-fluoro-3-(thiazol-2-yl)prop-2-en-1-one], the IC50 was 9000 nM. For `C#Cc1c(F)ccc2cc(O)cc(-c3ccc4c(N5CCN(C(=O)/C(F)=C/c6nccs6)CC5)nc(OC[C@@]56CCCN5C[C@H](F)C6)nc4c3F)c12` [Example 72, (Z)-1-(4-(7-(8-ethynyl-7-fluoro-3-hydroxynaphthalen-1-yl)-8-fluoro-2-(((2R,7aS)-2-fluorotetrahydro-1H-pyrrolizin-7a(5H)-yl)methoxy)quinazolin-4-yl)piperazin-1-yl)-2-fluoro-3-(thiazol-2-yl)prop-2-en-1-one] the value was 2 nM; for `COCCCN1CCC(Oc2nc(N3CCN(C(=O)/C(F)=C/c4ccccn4)[C@@H](CC#N)C3)c3ccc(-c4cccc5cccc(Cl)c45)c(F)c3n2)CC1` [Example 73, (S,Z)-2-(4-(7-(8-chloronaphthalen-1-yl)-8-fluoro-2-((1-(3-methoxypropyl)piperidin-4-yl)oxy)quinazolin-4-yl)-1-(2-fluoro-3-(pyridin-2-yl)acryloyl)piperazin-2-yl)acetonitrile], 710 nM. For `COCCCN1CCC(Oc2nc(N3CCN(C(=O)/C(F)=C/c4nccs4)[C@@H](CC#N)C3)c3ccc(-c4cccc5cccc(Cl)c45)c(F)c3n2)CC1` [Example 74, (S,Z)-2-(4-(7-(8-chloronaphthalen-1-yl)-8-fluoro-2-((1-(3-methoxypropyl)piperidin-4-yl)oxy)quinazolin-4-yl)-1-(2-fluoro-3-(thiazol-2-yl)acryloyl)piperazin-2-yl)acetonitrile] the value was 1500 nM; for `N#CC[C@H]1CN(c2nc(OC[C@@]34CCCN3C[C@H](F)C4)nc3c(F)c(-c4cccc5cccc(Cl)c45)ccc23)CCN1C(=O)/C(F)=C/c1nccs1` [Example 75, 2-((S)-4-(7-(8-chloronaphthalen-1-yl)-8-fluoro-2-(((2R,7aS)-2-fluorotetrahydro-1H-pyrrolizin-7a(5H)-yl)methoxy)quinazolin-4-yl)-1-((Z)-2-fluoro-3-(thiazol-2-yl)acryloyl)piperazin-2-yl)acetonitrile], 60 nM; for `Cc1ccc2[nH]ncc2c1-c1ccc2c(N3CCN(C(=O)/C(F)=C/c4ccccn4)[C@@H](CC#N)C3)nc(OC[C@@]34CCCN3C[C@H](F)C4)nc2c1F` [Example 76, 2-((2S)-4-(8-fluoro-2-(((2R,7aS)-2-fluorotetrahydro-1H-pyrrolizin-7a(5H)-yl)methoxy)-7-(5-methyl-1H-indazol-4-yl)quinazolin-4-yl)-1-((Z)-2-fluoro-3-(pyridin-2-yl)acryloyl)piperazin-2-yl)acetonitrile], 50 nM. In the case of `Cc1ccc2[nH]ncc2c1-c1ccc2c(N3CCN(C(=O)/C(F)=C/c4nccs4)[C@@H](CC#N)C3)nc(OC[C@@]34CCCN3C[C@H](F)C4)nc2c1F` [Example 77, 2-((2S)-4-(8-fluoro-2-(((2R,7aS)-2-fluorotetrahydro-1H-pyrrolizin-7a(5H)-yl)methoxy)-7-(5-methyl-1H-indazol-4-yl)quinazolin-4-yl)-1-((Z)-2-fluoro-3-(thiazol-2-yl)acryloyl)piperazin-2-yl)acetonitrile], the IC50 came out at 50 nM. The figure for `N#CC[C@H]1CN(c2nc(OC[C@@]34CCCN3C[C@H](F)C4)nc3c(F)c(-c4cccc5cccc(C#N)c45)ccc23)CCN1C(=O)/C(F)=C/c1ccccn1` [Example 78, 8-(4-((S)-3-(cyanomethyl)-4-((Z)-2-fluoro-3-(pyridin-2-yl)acryloyl)piperazin-1-yl)-8-fluoro-2-(((2R,7aS)-2-fluorotetrahydro-1H-pyrrolizin-7a(5H)-yl)methoxy)quinazolin-7-yl)-1-naphthonitrile] is 240 nM. In the case of `CN1CCC[C@H]1COc1nc(N2CCN(C(=O)/C(F)=C/c3ccccn3)[C@@H](CC#N)C2)c2ccc(-c3cccc4cccc(C#N)c34)c(F)c2n1` [Example 79, 8-(4-((S)-3-(cyanomethyl)-4-((Z)-2-fluoro-3-(pyridin-2-yl)acryloyl)piperazin-1-yl)-8-fluoro-2-(((S)-1-methylpyrrolidin-2-yl)methoxy)quinazolin-7-yl)-1-naphthonitrile], the half-maximal inhibitory concentration (IC50) turned out to be 1600 nM. For the compound `CN1CCC[C@H]1COc1nc(N2C[C@H]3CC[C@@H](C2)N3C(=O)/C(F)=C/c2ccccn2)c2ccc(-c3ccc(F)c4sc(N)nc34)c(F)c2n1` [Example 80, (Z)-1-((1R,5S)-3-(7-(2-amino-7-fluorobenzo[d]thiazol-4-yl)-8-fluoro-2-(((S)-1-methylpyrrolidin-2-yl)methoxy)quinazolin-4-yl)-3,8-diazabicyclo[3.2.1]octan-8-yl)-2-fluoro-3-(pyridin-2-yl)prop-2-en-1-one], the concentration for half-maximal inhibition (IC50) was 550 nM. Consider `C#Cc1cccc2cccc(-c3ccc4c(N(C)[C@@H]5CCN(C(=O)/C(F)=C/c6ccccn6)C5)nc(OC[C@@]56CCCN5C[C@H](F)C6)nc4c3F)c12` [Example 81, (Z)-1-((R)-3-((7-(8-ethynylnaphthalen-1-yl)-8-fluoro-2-(((2R,7aS)-2-fluorotetrahydro-1H-pyrrolizin-7a(5H)-yl)methoxy)quinazolin-4-yl)(methyl)amino)pyrrolidin-1-yl)-2-fluoro-3-(pyridin-2-yl)prop-2-en-1-one], for which the IC50 worked out at 20 nM.
